According to patent US20130231472A1, “USE OF MOLECULAR MARKERS FOR THE PRECLINICAL PROFILING OF INHIBITORS OF ENZYMES HAVING HISTONE DEACETYLASE ACTIVITY” (priority 2002, published 2013):
Square brackets hold non-standard residues; d marks the D form. Peptide text beside a SMILES is read from it. * marks the point of attachment. Aoe = N[C@@H](CCCCCC(=O)[C@@H]1CO1)C(=O)O; Sta = CC(C)C[C@H](N)[C@@H](O)CC(=O)O; Isovaleryl = CC(C)CC(=O)*; Nle = CCCC[C@H](N)C(=O)O; Cbz = O=C(OCc1ccccc1)*

Assays:
[1] = tested on: HDAC-2; assay: HDAC-2 protein levels in HEK293T cells (Westernblot); assay type: cell-based, human; conditions: for effect of protease inhibitor on control or VPA-repressed HDAC-2 protein levels: 24 h with or without VPA, FIG. 9A; for effect of proteasome inhibitor on VPA-induced degradation of HDAC-2: co-treatment with VPA, inhibitor added 4 h before harvest, FIG. 9B
Method: (§1) FIG. 6: (A) F9 teratocarcinoma or HEK293T embryonic kidney cells were exposed for indicated times to 1 mM VPA. Protein levels of HDAC-2 and HDACs 1 or 3 for reference (HDAC8; N-CoR and Sin3 as data not shown) were determined by Westernblot analysis. […] (C) The effect of other HDAC inhibitors on the amount of HDAC-2 protein was determined by using TSA (100 nM) in a time course analysis in F9 cells (left panel). The HDAC inhibitors TSA (100 nM), trapoxin (TPX, 10 nM), butyrate (1.5 mM) or MS275 (5 μM) were tested at a single time of exposure in HEK293T cells (right panel).
FIG. 9: (A) HEK293T cells were treated for 24 h with VPA or left untreated. The cell penetrating protease inhibitors pepstatin A, leupeptin, or ALLM were added as indicated at the time of VPA addition. (B) Proteasome inhibitors ALLN or MG-132 were added at the indicated concentrations 4 h before cells were harvested. Protein levels of HDAC-2 were determined by Westernblot analysis.

[2] = tested on: HDAC-2; assay: Ubiquitinated proteins in anti HDAC-2 immune precipitates (Westernblot against ubiquitin); assay type: cell-based; conditions: VPA 1.5 mM, 24 h; ALLN 5 μM; FIG. 10A
From the text: FIG. 10: (A) The total amount of high molecular weight poly-ubiquitinated protein was not altered by VPA treatment of cells (left two lanes). The presence of ubiquitinated proteins in anti HDAC-2 immune precipitates is shown in the right part of the panel. […] Ubiquitinated proteins in the precipitates were detected by Western blot analysis. For lane N a non-immune serum was used instead of the anti HDAC-2 antibody. (B) The presence of mono- and/or oligo-ubiquitinated HDAC-2 upon VPA treatment of HEK293T cells was determined by ectopic expression of His6-tagged ubiquitin followed by VPA-treatment for 36 h as indicated. The proteasome inhibitor MG-132 was added 4 h prior to analysis to enhance the accumulation of ubiquitinated proteins. Electrophoretic mobility and unaltered presence of non-ubiquitinated HDAC-2 were determined by Westernblot analysis of whole cell extracts (left panel). […] Anti-HDAC-2 immuno-reactive bands with the expected mobility of mono- or poly-ubiquitinated HDAC-2 are indicated by a bracket.

[3] = tested on: RLIM; assay: RLIM protein levels in HEK293T cells (Westernblot); assay type: cell-based, human; conditions: 24 hours
Method: FIG. 12 (A) RLIM protein levels were determined by Westernblot analysis after treatment of HEK293T cells for 24 hours with the HDAC inhibitors VPA (0.5, 1.5, or 5 mM), TSA (30, 100 or 300 nM) or a combination of VPA (1.5 mM) and TSA (100 nM). Actin protein levels are shown as a control for equal loading. (B) RLIM protein levels were determined by Westernblot analysis after treatment of HEK293T cells for 24 hours with the HDAC inhibitor TSA (100 nM), the proteasome inhibitor ALLN (2.5 μM) or a combination of both. Actin protein levels are shown as a control for equal loading.

[4] = tested on: stage III/IV non-small cell lung cancer; conditions: monotherapy, phase II; cited from earlier work
[5] = tested on: HDAC-2; assay: HDAC-2 protein levels in F9 teratocarcinoma cells (Westernblot); assay type: cell-based, murine
Method: as §1

[6] = tested on: F9 cells; assay: Toxicity in F9 cells (cell loss, actin loading control); assay type: cell-based, murine; conditions: 48 h TSA (100 nM)
Method: as §1

[7] = tested on: T-cell lymphomas; conditions: phase II; cited from earlier work
[8] = tested on: TRAIL; assay: TRAIL expression in spleen after in vivo treatment (RNAse protection assay); set-up: species or system mice; conditions: leukemic mice; 96 hours of retinoic acid treatment (21-day-release pellet, 5 mg RA); FIG. 4A
Method: Leukemic mice or healthy mice (Ctrl) were then treated with placebo (lanes 1, 3), VPA (400 mg/kg every 12 hours), all-trans retinoic acid (a 21-day-release pellet containing 5 mg RA or placebo: lanes 8-9), and VPA plus retinoic acid (lanes 10-11). Mice were sacrificed 18 hours (lanes 4-5), or 36 hours after beginning of treatment (lanes 3, 6-7, 10-11): total RNAs were collected from the spleens (with a >75% invasion of leukemic blasts as assessed by Giemsa staining) and analyzed by RNAse protection assay to check for expression of TRAIL.

[9] = tested on: HDACs; assay: Inhibition of HDACs; assay type: biochemical
[10] = tested on: PML-RAR leukemia; conditions: one PML-RAR patient with multiple relapses after retinoic acid; cited from earlier work
[11] = target: HDAC-4
[12] = HEK293T cells, VPA 1 mM, TSA 100 nM, trapoxin 10 nM, butyrate 1.5 mM, MS275 5 μM

Sequence of HDAC-4 (P56524 whole entry): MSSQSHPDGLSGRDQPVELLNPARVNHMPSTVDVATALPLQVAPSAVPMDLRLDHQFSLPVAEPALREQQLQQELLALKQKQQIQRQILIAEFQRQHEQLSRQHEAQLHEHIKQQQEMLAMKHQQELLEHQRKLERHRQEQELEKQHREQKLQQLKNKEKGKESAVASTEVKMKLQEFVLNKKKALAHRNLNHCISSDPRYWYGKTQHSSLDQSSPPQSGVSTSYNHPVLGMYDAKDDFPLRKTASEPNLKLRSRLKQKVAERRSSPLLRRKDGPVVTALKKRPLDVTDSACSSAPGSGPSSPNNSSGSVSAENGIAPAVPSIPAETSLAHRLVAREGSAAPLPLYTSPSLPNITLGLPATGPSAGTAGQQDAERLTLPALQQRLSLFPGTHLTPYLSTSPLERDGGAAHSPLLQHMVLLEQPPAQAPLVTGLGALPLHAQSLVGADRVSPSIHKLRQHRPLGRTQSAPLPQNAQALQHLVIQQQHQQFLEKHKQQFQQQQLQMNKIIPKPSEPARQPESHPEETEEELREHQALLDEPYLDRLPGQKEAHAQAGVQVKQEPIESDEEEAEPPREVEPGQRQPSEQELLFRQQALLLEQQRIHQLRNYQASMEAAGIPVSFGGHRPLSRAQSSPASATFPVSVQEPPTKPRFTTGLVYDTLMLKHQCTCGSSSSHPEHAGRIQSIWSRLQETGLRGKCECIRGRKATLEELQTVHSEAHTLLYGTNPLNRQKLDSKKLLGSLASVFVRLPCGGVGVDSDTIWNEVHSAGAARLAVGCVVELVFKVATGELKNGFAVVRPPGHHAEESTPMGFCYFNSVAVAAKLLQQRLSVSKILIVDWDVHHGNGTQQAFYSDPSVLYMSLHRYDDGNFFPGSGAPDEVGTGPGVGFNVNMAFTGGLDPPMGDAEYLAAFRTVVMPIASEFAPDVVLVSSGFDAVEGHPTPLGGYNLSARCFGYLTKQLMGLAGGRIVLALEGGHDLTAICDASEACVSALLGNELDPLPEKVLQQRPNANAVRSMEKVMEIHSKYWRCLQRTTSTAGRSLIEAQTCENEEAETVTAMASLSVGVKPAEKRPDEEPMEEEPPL

CSCC[C@@H](C=O)NC(=O)[C@H](CC(C)C)NC(=O)[C@H](CC(C)C)NC(C)=O [ALLM] (Ac-Leu-Leu-Met-aldehyde)
effect of protease inhibitor on control or VPA-repressed HDAC-2 protein levels ([1]; HEK293T cells): Neither of the protease inhibitors pepstatin A, leupeptin or ALLM had an effect

CCCC[C@@H](C=O)NC(=O)[C@H](CC(C)C)NC(=O)[C@H](CC(C)C)NC(C)=O [ALLN] (Ac-Leu-Leu-[Nle]-aldehyde)
effect of proteasome inhibitor on VPA-induced degradation of HDAC-2 ([1]; HEK293T cells): abolished VPA-induces degradation of HDAC-2 completely
amount of ubiquitinated protein precipitated with antibody against HDAC-2 [2]: increase the amount of this anti-ubiquitin reactive protein
block of TSA-induced proteosomal degradation of RLIM ([3]; TSA 100 nM plus ALLN 2.5 μM, FIG. 12B): can be blocked

CCCC(=O)O [Butyrate, butyric acid]
HDAC-2 protein levels [1, 12]: Reduction of HDAC-2 protein levels

CC(C)C[C@@H](C=O)NC(=O)[C@H](CC(C)C)NC(=O)[C@H](CC(C)C)NC(=O)OCc1ccccc1 [MG-132] (Cbz-Leu-Leu-Leu-aldehyde)
effect of proteasome inhibitor on VPA-induced degradation of HDAC-2 ([1]; HEK293T cells): abolished VPA-induces degradation of HDAC-2 completely

CCCC(=O)OCOC(=O)C(C)(C)C [Pivanex]
clinical activity [4]: demonstrating activity in stage III/IV non-small cell lung cancer

CC(/C=C/C(=O)NO)=C\[C@@H](C)C(=O)c1ccc(N(C)C)cc1 [TSA, trichostatin A]
HDAC-2 protein levels [5]: does not reduce HDAC-2 levels
HDAC-2 protein levels [1]: does not reduce HDAC-2 levels
toxicity (cell loss, reduction in actin loading control) [6]: toxic
amount of ubiquitinated protein precipitated with antibody against HDAC-2 [2]: no effect
RLIM protein levels / degradation ([3]; VPA 0.5, 1.5 or 5 mM, TSA 30, 100 or 300 nM, FIG. 12): induce an enhanced proteosomal degradation of the E3 ligase RLIM

C/C=C1\NC(=O)[C@H]2CSSCC/C=C/[C@H](CC(=O)N[C@H](C(C)C)C(=O)N2)OC(=O)[C@H](C(C)C)NC1=O [depsipeptide]
clinical outcome [7]: used successfully

CC(=O)N[C@@H](CC(C)C)C(=O)N[C@@H](CC(C)C)C(=O)N[C@H](C=O)CCCNC(=N)N [leupeptin]
effect of protease inhibitor on control or VPA-repressed HDAC-2 protein levels ([1]; HEK293T cells): Neither of the protease inhibitors pepstatin A, leupeptin or ALLM had an effect

CC(C)CC(=O)N[C@H](C(=O)N[C@H](C(=O)N[C@@H](CC(C)C)[C@@H](O)CC(=O)N[C@@H](C)C(=O)N[C@@H](CC(C)C)[C@@H](O)CC(=O)O)C(C)C)C(C)C [pepstatin A] (Isovaleryl-VV[Sta]A[Sta]-OH)
effect of protease inhibitor on control or VPA-repressed HDAC-2 protein levels ([1]; HEK293T cells): Neither of the protease inhibitors pepstatin A, leupeptin or ALLM had an effect

CC1=C(/C=C/C(C)=C/C=C/C(C)=C/C(=O)O)C(C)(C)CCC1 [retinoic acid, all-trans retinoic acid]
TRAIL expression in spleen [8]: as strongly as upon 96 hours of retinoic acid treatment

O=C1N[C@@H](Cc2ccccc2)C(=O)N2CCC[C@@H]2C(=O)N[C@@H](CCCCCC(=O)[C@@H]2CO2)C(=O)N[C@H]1Cc1ccccc1 [trapoxin] (cyclo(FF[dP][Aoe]))
HDAC-2 protein levels [1, 12]: Neither the cyclic tetrapeptide HDAC inhibitor trapoxin nor the anilide-based HDAC inhibitor MS-275 induces reduction of HDAC-2 protein levels

CCCC(CCC)C(N)=O [valpromide]
HDAC-2 protein levels ([1]; cell line and concentration not stated): does not affect HDAC-2 protein levels
HDAC inhibition [9]: does not inhibit HDACs

MS-275
HDAC-2 protein levels [1, 12]: Neither the cyclic tetrapeptide HDAC inhibitor trapoxin nor the anilide-based HDAC inhibitor MS-275 induces reduction of HDAC-2 protein levels

phenylbutyrate
clinical response of leukemia [10]: complete remission of the leukemia

B1: E3 ubiquitin ligase RLIM (protein)
chain: MENSDSNDKGSGDQSAAQRRSQMDRLDREEAFYQFVNNLSEEDYRLMRDNNLLGTPGESTEEELLRRLQQIKEGPPPQNSDENRGGDSSDDVSNGDSIIDWLNSVRQTGNTTRSGQRGNQSWRAVCRTNPNSGNFRFSLEINVYSNNGSQNSENENEPSARRSSGENVENNSQRQVENPRSESTSARPSRSERNSTEALTEVPPTRGQRRARSRSPDHRRTRARAERSRSPLHPMSEIPRRSHHSISSQTFEHPLVNETEGSSRTRHHVTLRQQISGPELLSRGLFAASGTRNASQGAGSSDTAASGESTGSGQRPPTIVLDLQVRRVRPGEYRQRDSIASRTRSRSQTPNNTVTYESERGGFRRTFSRSERAGVRTYVSTIRIPIRRILNTGLSETTSVAIQTMLRQIMTGFGELSYFMYSDSDSEPTGSVSNRNMERAESRSGRGGSGGGSSSGSSSSSSSSSSSSSSSSSSSSPSSSSGGESSETSSDLFEGSNEGSSSSGSSGARREGRHRAPVTFDESGSLPFLSLAQFFLLNEDDDDQPRGLTKEQIDNLAMRSFGENDALKTCSVCITEYTEGNKLRKLPCSHEYHVHCIDRWLSENSTCPICRRAVLASGNRESVV
in vitro ubiquitination (Ubc8 as E2, RLIM as E3) [11]: the class II HDAC-4 are substrates for Ubc8/RLIM
